# Test results as given in US20210261569A1, “FUSED HETEROCYCLIC DERIVATIVES HAVING SELECTIVE BACE1 INHIBITORY ACTIVITY” (Shionogi & Co., Ltd., priority 2018, published 2021).
# What was measured:
# Metabolic stability test = format: in vitro ADME; conditions: human liver microsomes 0.5 mg protein/mL, NADPH, 37° C.
# Experimental: Using a commercially available pooled human liver microsomes, a compound of the present invention was reacted for a constant time, a remaining rate was calculated by comparing a reacted sample and an unreacted sample, thereby, a degree of metabolism in liver was assessed.
# A reaction was performed (oxidative reaction) at 37° C. for 0 minute or 30 minutes in the presence of 1 mmol/L NADPH in 0.2 mL of a buffer (50 mmol/L Tris-HCl pH 7.4, 150 mmol/L potassium chloride, 10 mmol/L magnesium chloride) containing 0.5 mg protein/mL of human liver microsomes. After the reaction, 50 μL of the reaction solution was added to 100 μL of a methanol/acetonitrile=1/1 (v/v), mixed and centrifuged at 3000 rpm for 15 minutes. The compound of the present invention in the supernatant was quantified by LC/MS/MS or solid phase extraction (SPE)/MS, and a remaining amount of the compound of the present invention after the reaction was calculated, letting a compound amount at 0 minute reaction time to be 100%.
# [1] = molecular target: T1, human ether-a-go-go related gene (hERG) channel (Homo sapiens, UniProt Q12809); test: hERG test (whole cell patch clamp, QPatch); format: cell-based; conditions: CHO cells expressing hERG, tail peak current
# T1 construct: expressed in transfected cells; host or cells: CHO cells
# Excerpt: For the purpose of assessing risk of an electrocardiogram QT interval prolongation, effects on delayed rectifier K+ current (IKr), which plays an important role in the ventricular repolarization process of the compound of the present invention, was studied using CHO cells expressing human ether-a-go-go related gene (hERG) channel.
# A cell was retained at a membrane potential of −80 mV by whole cell patch clamp method using an automated patch clamp system (QPatch; Sophion Bioscience A/S). After application of leak potential at −50 mV, IKr induced by depolarization pulse stimulation at +20 mV for 2 seconds and, further, repolarization pulse stimulation at −50 mV for 2 seconds was recorded.
# After the generated current was stabilized, extracellular solution (NaCl: 145 mmol/L, KCl: 4 mmol/L, CaCl2:2 mmol/L MgCl2:1 mmol/L, 1 mmol/L, HEPES (4-(2-hydroxyethyl)-1-piperazineethanesulfonic acid: 10 mmol/L, glucose:10 mmol/L pH=7.4) in which the compound of the present invention have been dissolved at an objective concentration was applied to the cell under the room temperature condition for 10 minutes. From the recording IKr, an absolute value of the tail peak current was measured based on the current value at the resting membrane potential using an analysis software (QPatch assay software; Sophion Bioscience A/S). Further, the % inhibition relative to the tail peak current before application of the compound of the present invention was calculated, and compared with the vehicle-applied group (0.1% dimethyl sulfoxide solution) to assess influence of the compound of the present invention on IKr.
# [2] = molecular target: T2, P-gp (MDR1 expressing LLC-PK1 cells) (Homo sapiens, UniProt P08183); test: P-gp substrate test; format: in vitro ADME; conditions: MDR1 expressing LLC-PK1 cells vs parent LLC-PK1 cells
# T2 construct: host or cells: LLC-PK1 (porcine kidney) cells
# Experimental: 1. MDR1 expressing LLC-PK1 cells and its parent cells were routinely cultured in Medium A (Medium 199 (Invitrogen) supplemented with 10% FBS (Invitrogen), gentamycin (0.05 mg/mL, Invitrogen) and hygromycin B (100 μg/mL, Invitrogen)) at 37° C. under 5% CO2/95% 02 gasses. For the transport experiments, these cells were seeded on Transwell (Registered trademark) insert (96-well, pore size: 0.4 μm, Coaster) at a density of 1.4×10^4 cells/insert and added Medium B (Medium 199 supplemented with 10% FBS and gentamycin at 0.05 mg/mL) to the feeder tray. These cells were incubated in a CO2 incubator (5% CO2/95% 02 gasses, 37° C.) and replace apical and basolateral culture medium every 48-72 hr after seeding. These cells were used between 4 and 6 days after seeding. 2. The medium in the culture insert seeded with MDR1 expressing cells or parent cells were removed by aspiration and rinsed by HBSS. The apical side (140 μL) or basolateral side (175 μL) was replaced with transport buffer containing reference substrates and the present invention and then an aliquot (50 μL) of transport buffer in the donor side was collected to estimate initial concentration of reference substrate and the present invention. After incubation for designed time at 37° C., an aliquot (50 μL) of transport buffer in the donor and receiver side were collected. Assay was performed by duplicate or triplicate. 3. Reference substrate and the present invention in the aliquot was quantified by LC/MS/MS.
# Permeated amounts across monolayers of MDR1 expressing and parent cells were determined, and permeation coefficients (Pe) were calculated using Excel 2003 from the following equitation:
# Pe (cm/sec)=Permeated amount (pmol)/area of cell membrane (cm^2)/initial concentration (nM)/incubation time (sec) Where, permeated amount was calculated from permeation concentration (nM, concentration of the receiver side) of the substance after incubation for the defined time (sec) multiplied by volume. (mL) and area of cell membrane was used 0.1433 (cm2). The efflux ratio was calculated using the following equation:
# Efflux Ratio=Basolateral-to-Apical Pe/Apical-to-Basolateral Pe
# The net flux was calculated using the following equation:
# Net flux=Efflux Ratio in MDR1 expressing cells/Efflux Ratio in parent cells
# T2 sequence (P08183 whole entry): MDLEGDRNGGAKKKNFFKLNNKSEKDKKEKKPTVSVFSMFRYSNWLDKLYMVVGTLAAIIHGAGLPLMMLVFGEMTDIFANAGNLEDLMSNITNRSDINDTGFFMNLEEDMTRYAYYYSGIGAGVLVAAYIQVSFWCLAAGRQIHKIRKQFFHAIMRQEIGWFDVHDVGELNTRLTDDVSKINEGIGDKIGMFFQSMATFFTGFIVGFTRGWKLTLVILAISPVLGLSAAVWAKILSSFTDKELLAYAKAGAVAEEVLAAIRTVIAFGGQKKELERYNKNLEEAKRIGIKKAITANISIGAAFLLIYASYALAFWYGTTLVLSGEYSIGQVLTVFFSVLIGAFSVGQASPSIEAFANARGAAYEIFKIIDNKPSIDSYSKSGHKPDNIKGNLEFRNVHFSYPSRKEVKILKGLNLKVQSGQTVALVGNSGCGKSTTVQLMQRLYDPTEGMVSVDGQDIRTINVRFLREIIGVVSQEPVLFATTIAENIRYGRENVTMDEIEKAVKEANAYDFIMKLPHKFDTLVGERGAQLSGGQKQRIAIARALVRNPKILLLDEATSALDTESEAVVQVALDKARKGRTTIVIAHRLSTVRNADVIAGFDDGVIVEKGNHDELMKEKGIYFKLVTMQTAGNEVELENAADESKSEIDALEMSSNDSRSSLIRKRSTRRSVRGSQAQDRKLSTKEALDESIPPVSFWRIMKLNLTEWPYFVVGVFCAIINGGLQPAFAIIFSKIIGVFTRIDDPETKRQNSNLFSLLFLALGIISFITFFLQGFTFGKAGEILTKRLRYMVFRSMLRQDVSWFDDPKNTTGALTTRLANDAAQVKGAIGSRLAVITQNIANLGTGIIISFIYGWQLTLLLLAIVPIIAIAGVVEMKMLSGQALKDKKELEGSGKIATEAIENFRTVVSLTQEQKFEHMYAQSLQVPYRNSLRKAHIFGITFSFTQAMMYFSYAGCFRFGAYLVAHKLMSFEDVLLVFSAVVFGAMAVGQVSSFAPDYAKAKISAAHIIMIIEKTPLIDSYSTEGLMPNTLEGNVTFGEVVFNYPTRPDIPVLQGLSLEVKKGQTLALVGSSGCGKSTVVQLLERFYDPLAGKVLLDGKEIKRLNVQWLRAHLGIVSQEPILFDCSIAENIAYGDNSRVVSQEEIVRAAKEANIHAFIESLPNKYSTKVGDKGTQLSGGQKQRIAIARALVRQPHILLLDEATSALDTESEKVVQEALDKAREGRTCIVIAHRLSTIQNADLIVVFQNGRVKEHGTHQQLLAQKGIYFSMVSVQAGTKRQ
# T1 sequence (Q12809 whole entry): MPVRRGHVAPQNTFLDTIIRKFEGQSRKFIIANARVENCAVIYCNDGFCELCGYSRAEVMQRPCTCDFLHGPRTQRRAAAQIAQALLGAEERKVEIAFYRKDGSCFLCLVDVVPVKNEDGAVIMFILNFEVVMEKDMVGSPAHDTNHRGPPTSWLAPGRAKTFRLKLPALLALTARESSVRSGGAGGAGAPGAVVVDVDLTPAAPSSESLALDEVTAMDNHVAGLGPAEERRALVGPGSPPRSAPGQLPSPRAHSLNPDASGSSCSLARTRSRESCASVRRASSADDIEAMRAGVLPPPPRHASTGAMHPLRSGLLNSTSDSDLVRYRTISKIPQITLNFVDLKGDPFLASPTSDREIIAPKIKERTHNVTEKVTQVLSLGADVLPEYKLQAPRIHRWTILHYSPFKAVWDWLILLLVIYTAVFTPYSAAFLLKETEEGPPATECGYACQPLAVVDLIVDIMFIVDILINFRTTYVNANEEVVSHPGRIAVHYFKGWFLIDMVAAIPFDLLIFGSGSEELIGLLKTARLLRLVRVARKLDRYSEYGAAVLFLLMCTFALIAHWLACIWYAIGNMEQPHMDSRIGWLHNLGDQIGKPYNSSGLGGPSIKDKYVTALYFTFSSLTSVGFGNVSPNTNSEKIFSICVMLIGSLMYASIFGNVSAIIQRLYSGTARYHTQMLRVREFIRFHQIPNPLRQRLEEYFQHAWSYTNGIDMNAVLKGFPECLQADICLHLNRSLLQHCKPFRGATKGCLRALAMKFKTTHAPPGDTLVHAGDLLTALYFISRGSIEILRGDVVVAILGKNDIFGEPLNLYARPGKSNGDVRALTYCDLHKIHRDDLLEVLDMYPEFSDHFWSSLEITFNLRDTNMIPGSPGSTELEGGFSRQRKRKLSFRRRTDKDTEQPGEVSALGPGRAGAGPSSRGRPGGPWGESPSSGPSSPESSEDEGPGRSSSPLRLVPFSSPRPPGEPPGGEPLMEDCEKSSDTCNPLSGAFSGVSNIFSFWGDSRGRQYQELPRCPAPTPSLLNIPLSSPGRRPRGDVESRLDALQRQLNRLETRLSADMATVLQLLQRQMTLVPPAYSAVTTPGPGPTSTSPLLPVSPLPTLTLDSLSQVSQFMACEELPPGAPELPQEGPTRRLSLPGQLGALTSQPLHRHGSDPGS
Remaining rate (%) at 30 min (Metabolic stability test) [%],P-gp ER ratio [2],Compound,hERG inhibition (%) at 3 μM [1] [%]
65,3.3,CC1(C)OC[C@H]2[C@@H]1OC(N)=N[C@]2(CF)c1cc(NC(=O)c2cnc(OCF)cn2)ccc1F [Compound I-096],19.4
91,5.3,NC1=N[C@](CF)(c2cc(NC(=O)c3cnc(OCF)cn3)ccc2F)[C@H]2CO[C@@H](CF)[C@H]2O1 [Compound I-112],5
102,2.1,NC1=N[C@](CF)(c2cc(NC(=O)c3cnc(OCF)cn3)ccc2F)[C@H]2[C@H](CF)OC[C@H]2O1 [Compound I-114],12.4
93,3,NC1=N[C@](CF)(c2cc(NC(=O)c3cnc(OCF)cn3)ccc2F)[C@H]2[C@H](CCF)OC[C@H]2O1 [Compound I-115],9.9
